Test results from US5317019A, “Inhibition of interleukin-1 and tumor necrosis factor production by monocytes and/or macrophages” (priority 1991, dated 1994).
Read-outs that look alike come from different tables or passages of the source.

Experiments:
[1] = system: IL-1 production by human monocytes; test: In vitro IL-1 production by LPS-stimulated human monocytes; assay type: cell-based
Protocol: Bacterial lipopolysaccharide (LPS) was used to induce IL-1 production by human peripheral blood monocytes. IL-1 activity was measured by its ability to stimulate a Interleukin 2 (IL-2) producing cell line […] to secrete IL-2, in concert with A23187 ionophore, according to the method of Simon et al., J. Immunol. […] The cells were allowed to adhere for 2 hours, after which time non-adherent cells were removed by gentle washing. […] At the end of the incubation period, culture supernatants were removed and clarified of cells and all debris.

[2] = system: TNF production by human monocytes; test: In vitro TNF production by LPS-stimulated human monocytes (ELISA); assay type: cell-based; settings: Table B, LPS 50 ng/ml, 24 h, read-out: IC50, LPS induced TNF human monocyte data
Protocol: The effects of the compounds enumerated above on the in vitro production of TNF by human monocytes was examined using the following protocol.
Bacterial lipopolysaccharide (LPS) was used to induce TNF production by human peripheral blood monocytes. TNF activity was measured by a modification of Winston et al., ELISA, described below. […] The cells were allowed to adhere for 2 hours, after which time non-adherent cells were removed by gentle washing. […] At the end of the incubation period, culture supernatants were removed and clarified of cells and all debris. Culture supernatants were immediately assayed for TNF levels in the manner described below.
The Elisa employes a murine monoclonal anti-human TNF antibody, described below, as the capture antibody and a polyclonal rabbit anti-human TNF, described below, as the second antibody. […] TNF levels in samples were calculated from a standard curve genereated with recombinant human TNF produced in E. Coli (obtained from SmithKIine Beecham Pharmaceuticals, King of Prussia, Pa., USA).
Polyclonal rabbit anti-human TNF antibodies were prepared by repeated immunization of New Zeland White (NZW) rabbits with recombinant human TNF emulsified in complete Freund's adjuvant (DEFCO, Ill., USA).

endotoxin shock in mice = test: In vivo endotoxin shock models (P. acnes and/or LPS-GAL); parameters: species or system mouse (C57BL/6); settings: one or both in vivo models
Description: Two models of endotoxin shock have been utilized to determine in vivo TNF activity and are described below. The actual protocol used in the models is described in Utility Model Examples A and B set out below, i.e. P. acnes model and LPS-GAL model.
The protocol used to test the compound of the method of the subject invention was essentially as has been described in Galanos et al., Proc. Nat'l Acad. Sci USA, 76:5939-43 (1979) whose disclosure is herein incorporated by reference. Briefly, D-gal […] sensitizes various strains of mice to the lethal effects of endotoxin. The administration of D-gal (300-500 mg/kg) intravenously (i.v.) sensitizes the mice to doses of Lipopolysaccharide(LPS ) as low as 0.1 mg. Briefly, male C57BL/6 mice, obtained from Charles River Laboratories (Stone Ridge, N.Y., USA) of 6-12 weeks of age were injected i.v. with 0.1 mg of LPS from Salmonella typhosa (Difco Laboratories, Detroit, Mich., USA) admixed with D(+)-gal (Sigma; 500 mg/kg) in 0.20-0.25 ml pyrogen-free saline. Compounds to be tested were administered at various times prior to or following the i.v. injection of LPS/D-gal. In this model, the control animals usually die 5-6 hr. following the injection of LPS, although on occasion deaths are seen between 24 and 48 hr.
This model is a modification of the previously described protocol for the in vivo induction of TNF as described in Haranaka et al., Cancer Immunol Immunother. 18:81-90, (1984). Treatment with Proprionibacterium Acnes (P. acnes) (1 mg/animal i.p.) renders mice susceptible to the lethal effects of LPS injected 10 days later.
P. acnes was purchased from Burroughs Wellcome (Triangle Park, N.C., USA), and […] of the heat-killed bacteria was administered in 0.5 ml pyrogen-free saline by intraperitoneal (i.p.) injection to male C57BL/6 mice, obtained from Charles River Laboratories (Stone Ridge, N.Y., USA) of 6-12 weeks of age. Ten days later, the mice were injected i.v. with 1 mg LPS in 0.25 ml saline. Compounds to be tested were administered at various times prior to or following the injection of LPS. The survival of animals was monitored for 1 week.
Plasma levels of TNF were measured using a modification of the basic sandwich ELISA method described in Winston et al., Current Protocols in Molecular Biology, Pg. 11.2.1, Ausubel et al., Ed. (1987) John Wiley and Sons, New York, USA. The Elisa employed a hampster monoclonal anti-mouse TNF (Genzyme, Boston, Mass., USA ) as the capture antibody and a polyclonal rabbit anti-murine TNF (Genzyme, Boston, Mass., USA ) as the detecting antibody. TNF levels in rat samples were calculated from a standard curve generated with recombinant murine TNF (Genzyme, Boston, Mass., USA). TNF levels determined by ELISA correlated with levels detected by the L929 bioassay of Ruff et. al., J. Immunol. 125:1671-1677 (1980), with 1 Unit of activity in the bioassay corresponding to 70 picograms (pg) of TNF in the ELISA. The ELISA detected levels of TNF down to 25 pg/ml.

[3] = Table 3, read-out: IC50, inhibition of IL-1 production by LPS stimulated monocytes in vitro
[4] = Homo sapiens, Monocyte, Table 1, LPS 50 ng/ml, 24 h, read-out: IC50, effect on LPS-stimulated IL-1 production by human monocytes
[5] = Homo sapiens, Monocyte, Table 3, read-out: IC50, inhibition of IL-1 production by LPS stimulated monocytes in vitro

| Compound | IC50 [1, 4] | IC50 [1, 5] | further results |
| --- | --- | --- | --- |
| 2-(Acetyl-thio-phenyl)-3-(4-pyridyl)-6,7-dihydro[5H]-pyrrolo-[1,2-a]-imidazole [Compound 20] | – | – | IC50 [1, 3]: > 10000 nM |
| 2-[Trimethylacetyl(thiophenyl)]-3-(4-pyridyl)-6,7-dihydro[5H]pyrrolo-[1,2-a]-imidazole [Compound 16] | – | – | IC50 [1, 3]: > 10000 nM |
| 2-p-bromophenyl-3-pyridyl-6,7-dihydro-[5H]-pyrrolo-[1,2-a]-imidazole [Compound D] | – | – | IC50 [2]: 1000 nM |
| 2-phenyl-3-pyridyl-6,7-dihydro-[5H]-pyrrolo[1,2-a]imidazole [Compound C] | – | – | IC50 [2]: 800 nM |
| COc1ccc(-c2nc3ccccn3c2-c2ccncc2)cc1 [Compound 7, 2-(4-methoxyphenyl)-3-(4-pyridyl)-imidazo-[1,2-a]-pyridine] | 1000 nM | – | – |
| c1cc(-c2nc3n(c2-c2ccc4c(c2)OCO4)CCS3)ccn1 [Compound 8, 5-(3,4-(methylenedioxy)phenyl)-6-(4-pyridyl)-2,3-dihydroimidazo-[2-1-b]-thiazole] | 10000 nM | – | – |
| COc1ccc(-c2nc3n(c2-c2ccnc(C)c2)CCC3)cc1 [Compound 9, 2-(4-methoxyphenyl)-3-(4-(2-methyl)pyridyl)-6,7-dihydro-[5H]-pyrrolo-[1,2-a]-imidazole] | 700 nM | – | – |
| CC(=O)OCSc1ccc(-c2nc3n(c2-c2ccncc2)CCC3)cc1 [Compound 10, 2-(4-acetoxymethylthiophenyl)-3-(4-pyridyl)-6,7-dihydro-[5H]-pyrrolo-[1,2-a]-imidazole] | 6300 nM | – | IC50 ([2]; Homo sapiens, Monocyte): 3000 nM |
| CSc1ccc(-c2nc3n(c2-c2ccncc2)CCS3)cc1 [Compound 11, 6-(4-methylthiophenyl)-5-(4-pyridyl)-2,3-dihydro-imidazo-[2,1-b]-thiazole] | 1800 nM | – | – |
| CSc1ccc(-c2c(-c3ccncc3)nc3n2CCS3)cc1 [Compound 12, 5-(4-methylthiophenyl)-6-(4-pyridyl)-2,3-dihydro-imidazo-[2,1-b]-thiazole] | 1800 nM | – | – |
| CSc1ccc(-c2c(-c3ccncc3)nc3n2CCC3)cc1 [Compound 13, 3-(4-methylthiophenyl)-2-(4-pyridyl)-6,7-dihydro-[5H]-pyrrolo-[1,2-a]-imidazole] | 2000 nM | – | – |
| CCCSc1ccc(-c2nc3n(c2-c2ccncc2)CCC3)cc1 [Compound 14, 2-(4-propylthiophenyl)-3-(4-pyridyl)-6,7-dihydro-[5H]-pyrrolo-[1,2-a]-imidazole] | > 10000 nM | – | – |
| CCc1cc(-c2c(-c3ccc(SC)cc3)nc3n2CCC3)ccn1 [Compound 15, 2-(4-methylthiophenyl)-3-(4-(2-ethyl)pyridyl)-6,7-dihydro-[5H]-pyrrolo-[1,2-a-]-imidazole] | 1300 nM | – | – |
| CC(C)Oc1ccc(-c2nc3n(c2-c2ccncc2)CCC3)cc1 [Compound 17, 2-(4-(2-Propoxy)phenyl)-3-(4-pyridyl)-6,7-dihydro-[5H]-pyrrolo-[1,2-a]-imidazole] | – | > 10000 nM | – |
| CCOc1ccc(-c2nc3n(c2-c2ccncc2)CCC3)cc1 [Compound 18, 2-(4-(1-Ethoxy)phenyl)-3-(4-pyridyl)-6,7-dihydro[5H]pyrrolo-[1,2-a]-imidazole] | – | 10000 nM | – |
| CCCOc1ccc(-c2nc3n(c2-c2ccncc2)CCC3)cc1 [Compound 19, 2-(4-(1-Propoxy)phenyl)-3-(4-pyridyl)-6,7-dihydro[5H]pyrrolo-[1,2-a]-imidazole] | – | > 10000 nM | – |
| COc1ccc(-c2c(-c3ccncc3)n3c([n+]2C)CCC3)cc1 [Compound 21, 2-(4-Methoxyphenyl)-3-(4-pyridyl)-6,7-dihydro-[5H]-pyrrolo-[1,2-a]-N-methylimidazole, monomethylsulfate] | – | – | IC50 [1, 3]: > 10000 nM |
| c1ccc(-c2nc3n(c2-c2ccncc2)CCC3)cc1 [Compound 22, 2-Phenyl-3-(4-pyridyl)-6,7-dihydro-[5H]-pyrrolo-[1,2-a]imidazole] | – | 500 nM | – |
| c1cc(-c2c(-c3ccc(SSc4ccc(-c5nc6n(c5-c5ccncc5)CCC6)cc4)cc3)nc3n2CCC3)ccn1 [Compound 23, 2-(4-Mercaptophenyl)-3-(4-pyridyl)-6,7-dihydro-[5H]-pyrrolo-[1,2-a]-imidazole disulfide] | – | 5900 nM | – |
| COc1ccc(-c2nc3n(c2-c2ccncc2)CCC3)cc1 [Compound 24, 2-(4-Methoxyphenyl)-3-(4-pyridyl)-6,7-dihydro-[5H]-pyrrolo-[1,2-a]-imidazole] | – | 100 nM | IC50 ([2]; Homo sapiens, Monocyte): 500 nM |
| COc1ccc(-c2nc3n(c2-c2ccncc2)CCS3)cc1 [Compound 25, 6-(4-Methoxyphenyl)-5-(4-pyridyl)-2,3-dihydroimidazo-[2,1-b]-thiazole] | – | 3000 nM | – |
| COc1ccc(-c2c(-c3ccncc3)nc3n2CCS3)cc1 [Compound 26, 5-(4-Methoxyphenyl)-6-(4-pyridyl)-2,3-dihydroimidazole-[2,1-b]-thiazole] | – | ≥ 10000 nM | – |
| Brc1ccc(-c2nc3n(c2-c2ccncc2)CCC3)cc1 [Compound 27, 2-(4-Bromophenyl)-3-(4-pyridyl)-6,7-dihydro-[5H]-pyrrolo-[1,2-a]-imidazole] | – | 700 nM | – |
| COc1ccc(-c2nc3n(c2-c2ccncc2)CCC3=O)cc1 [Compound E, 2-(4-Methoxyphenyl)-3-(4-pyridyl)-7-oxo-5,6-dihydro-7-H-pyrrolo-[1,2-a]imidazole] | – | – | IC50 ([2]; Homo sapiens, Monocyte): 1000 nM |
| COc1ccc(-c2nc3n(c2-c2ccncc2)CCC3O)cc1 (stereo not drawn) [Compound F, 5,6-dihydro-2-(4-methoxyphenyl)-3-(4-pyridinyl)-[7H]-pyrrolo[1,2-a]-imidazole-7-ol] | – | – | IC50 ([2]; Homo sapiens, Monocyte): 1000 nM |
| [O-][S+]1CCn2c1nc(-c1ccc(F)cc1)c2-c1ccncc1 (stereo not drawn) [Compound I, 6-(4-Fluorophenyl)-5-(4'-pyridyl)-2,3-dihydroimidazo[2,1-b]thiazole-1-oxide] | – | – | IC50 ([2]; Homo sapiens, Monocyte): 200 nM |
| O=S1(=O)CCn2c1nc(-c1ccc(F)cc1)c2-c1ccncc1 [Compound J, 6-(4-Fluorophenyl)-5-(4-pyridyl)-2,3-dihydroimidazo[2,1-b]thiazole-1,1-dioxide] | – | – | IC50 ([2]; Homo sapiens, Monocyte): 9000 nM; Inhibition of in vivo TNF levels / in vivo activity (endotoxin shock in mice): inhibited in vivo TNF levels; Protection from lethal effects of endotoxin shock (endotoxin shock in mice): protected the animals from endotoxic induced shock |
| Fc1ccc(-c2nc3n(c2-c2ccncc2)CCC3)cc1 [Compound M, 2-(4-Fluorophenyl)-3-(4-pyridyl)-6,7-dihydro-[5H]-pyrrolo-[1,2-a]-imidazole] | – | – | IC50 ([2]; Homo sapiens, Monocyte): 200 nM |
| Fc1ccc(-c2c(-c3ccncc3)nc3n2CCC3)cc1 [Compound N, 3-(4-Fluorophenyl)-2-(4-pyridyl)-6,7-dihydro-[5H]-pyrrolo-[1,2-a]-imidazole] | – | – | IC50 ([2]; Homo sapiens, Monocyte): 1000 nM |
